The numbers were not newly measured in patent publication US20110052625A1, “COMPOSITIONS AND METHODS FOR TREATING DIABETES USING LISOFYLLINE ANALOGS AND ISLET NEOGENESIS ASSOCIATED PEPTIDE” (DIAKINE THERAPEUTICS, INC., priority 2008, published 2011), which cites them from elsewhere.

This data set has as its system overt diabetic NOD (Non-Obese Diabetic) mice. The note with it: given alone; cited from earlier work.

Ends that are not written are not given here.

With “GLP-1: "a 300-amino-acid (peptide) incretin synthesized in the small and large intestine by the L-type cells" (HAEGTFTSDVSSYLEGQAAKEFIAWLVKGR; ends and bridges not checked; UniProt P01275 98-127, looked up)”, the effect on hyperglycemia result is listed as “no effect”.
